{"source": "patent US20060154910A1", "about": "“Use of steroids to treat ocular disorders” (priority 2003, published 2006)", "key": {"rabbits": {"system": "rabbits", "assay": "Rabbit dexamethasone acetate induced IOP elevation, topical ocular anecortave acetate", "type": "in vivo", "conditions": "for IOP change versus vehicle treated group: topical ocular three times a day for 2 weeks, rabbits on weekly subTenon's dexamethasone acetate 1 mg/kg, FIG. 2", "experimental": "Three groups of rabbits received weekly subTenon's injections of dexamnethasone acetate (1 mg/kg) for 4 weeks. After two weeks, the IOPs of all three groups measured approximately […]. The rabbits were then treated with vehicle, 0.1% anecortave acetate, a 1% anecortave acetate by topical ocular dosing three times a day for the remaining 2 weeks. The IOP continued to increase in the vehicle treated group."}, "[1]": {"system": "patients with documented glucocorticoid induced ocular hypertension", "assay": "Topical anecortave acetate in patients with glucocorticoid induced ocular hypertension (IOP)", "type": "in vivo, human", "conditions": "patients (n=15), 1% eye drops topically three times per day for up to 12 weeks, glucocorticoid medication continued; reduced from 29 mm Hg; FIG. 1", "experimental": "Patients (η=15) with documented glucocorticoid induced ocular hypertension were treated topically with 1% anecortave acetate eye drips three times per day for up to 12 weeks. The patients continued to receive their glucocorticoid medication."}}}
{"smiles": "CC(=O)OCC(=O)[C@@]1(O)[C@H](C)C[C@H]2[C@@H]3CCC4=CC(=O)C=C[C@]4(C)[C@@]3(F)[C@@H](O)C[C@@]21C", "note": "[dexamnethasone acetate, dexamethasone acetate, reference compound]", "values": [{"measurement": "IOP after two weeks of glucocorticoid injections", "setting": "rabbits; rabbits, weekly subTenon's injections 1 mg/kg, after two weeks, all three groups", "result": "approximately 5 mm Hg"}]}
{"smiles": "CC(=O)OCC(=O)[C@@]1(O)CC[C@H]2[C@@H]3CCC4=CC(=O)CC[C@]4(C)C3=CC[C@@]21C", "note": "[anecortave acetate, 4,9(11)-pregnadien-17α,21-diol-3,20dione-21-acetate]", "values": [{"measurement": "IOP after anecortave acetate treatment", "setting": "[1]", "result": "19-22 mm Hg"}, {"measurement": "IOP change versus vehicle treated group", "setting": "rabbits; 0.1% anecortave acetate", "result": "significantly lowered"}, {"measurement": "IOP change versus vehicle treated group", "setting": "rabbits; 1% anecortave acetate", "result": "significantly lowered"}]}
